Assay results taken from patent US11760733B2, “Small molecule regulators of mitochondrial fusion and methods of use thereof” (Washington University, priority 2017, dated 2023).

How the values were obtained:
Mfn2 null MEFs = assay: Mitochondrial elongation (aspect ratio) fusogenicity assay; assay type: cell-based, mouse
Excerpt: A cultured murine embryonic fibroblast assay system was used in which mitochondrial elongation (an increase in aspect ratio) reflects enhanced mitochondrial fusion.
A pharmacophore model was generated based on the interactions of HR1 and HR2 domains in the calculated structural model of Mfn2 in the closed conformation. The key features included hydrophobic interactions involving Mfn2 HR1: Val372 and Met376, and aromatic interactions and hydrogen bonding involving Mfn2 HR1 His380. […] A library comprising ˜14 million commercially available compounds was prepared in silico and evaluated using PHASE to fit these criteria. Top ranked hits were clustered, and filtered based on pharmacological properties using Qikprop. The top 55 (see TABLE 4) commercially available small molecules conforming to the model were selected for functional screening and purchased in 1 mg aliquots. Each compound was dissolved to a stock concentration of 10 mM in DMSO and applied to Mfn2 null MEFs overnight at a final concentration of 1 mM. […] Images were acquired by confocal microscopy. Each compound was scored for fusogenicity (see e.g., FIG. 24A) and % cell death (see e.g., FIG. 24B).
Wild-type MEFs were prepared from E10.5 c57/bl6 mouse embryos. […] MEFs were subcultured in DMEM (4.5 g/L glucose) plus 10% fetal bovine serum, 1× nonessential amino acids, 2 mM L-glutamine, 100U/ml penicillin and 100 ug/ml streptomycin.
Cells were excited with 408 nm (Hoechst), […] (MitoTracker Green and Calcein AM, GFP), or 637 nm (TMRE, MitoTracker Orange, Ethidium homodimer-1, and AF594-Dextran) laser diodes. For mitochondrial elongation studies mitochondrial aspect ratio (long axis/short axis) was calculated using automated edge detection and Image J software. Mitochondrial depolarization was calculated as % of green mitochondria visualized on MitoTracker Green and TMRE merged images, expressed as green/(green+yellow mitochondria)×100.

[1] = tested on: ALS and HD patient-derived fibroblasts; assay: Mitochondrial health in ALS and HD patient-derived fibroblasts; assay type: cell-based, human
Experimental: HD patient-derived fibroblast cell lines (GM04693 from patient and GM05539 from patient) were purchased from Invitrogen. ALS patient-derived fibroblasts (ALS 1: ND29509 from patient having SOD1 mutation; ALS 2: ND30327 having FUS1 mutation) and fibroblasts of control healthy individuals were purchased from Coriell Institute, USA. All fibroblast cultures were maintained in MEM supplemented with 15% (v/v) FBS and 1% (v/v) penicillin/streptomycin at 37° C. in 5% CO2-95% air. Galactose media was used, to increase mitochondria-dependent metabolism oxidative phosphorylation. Human fibroblasts were switched to grow for 48 h in DMEM deprived of glucose and containing galactose (4.5 g/l), 1% FBS, 5 mM sodium pyruvate and 2 mM L-glutamine for the studies.
Cells cultured in 8-well chamber slides were washed with cold PBS, fixed in 4% formaldehyde, and permeabilized with 0.1% Triton X-100. After incubation with 2% normal goat serum (to block nonspecific staining), fixed cells were incubated overnight at 4° C. with TOM20 antibody (1:500) (Santa Cruz, USA). Cells were washed with PBS and incubated for 60 minutes with FITC-conjugated goat anti-rabbit IgG (1:500 dilution). The cells were then washed gently with PBS and counterstained with Hoechst 33342 (1:10,000 dilution, Molecular Probes) to visualize nuclei. The coverslips were mounted with Slow-fade anti-fade reagent (Invitrogen), and images were acquired at 60× using an All-in-One Fluorescence Microscope BZ-X700 (Keyence).
Cells were incubated with tetra-methyl-rhodamine methyl ester (TMRM, 25 nM, Invitrogen) in HBSS (Hank's balanced salt solution) for 30 min at 37° C., per the manufacture's protocol, and the fluorescence was analyzed to measure mitochondrial membrane potential. All data were normalized with respect to the fluorescence intensity of control cells. To determine mitochondrial ROS production, cells were treated with 5 μM MitoSOX™ Red, a mitochondrial superoxide indicator (Invitrogen) for 20 min at 37° C., according to the manufacturer's protocol, and fluorescence was analyzed using SpectraMax M2e (Molecular devices).

[2] = tested on: MEFs expressing CMT2A mutant MFN2; assay: Mitochondrial dysmorphology in MEFs expressing MFN2 mutants; assay type: cell-based, mouse; conditions: MFN2 T105M in MEFs
Experimental: Fusogenic activity of commercially available small-molecule candidate pharmacophores (TABLE 4), focusing on those having structures that mimicked Ser^378-phosphorylated (class A) and -unphosphorylated (class B) minipeptide amino acid side chains were assessed (see e.g., FIG. 5, TABLE 5). It was reasoned that simultaneous application of class A and B agonists could enhance mitofusin by acting on both MFN2 Ser^378 phosphorylation states. […] Therefore, Cpd A and B functionality were assimilated into a single molecule by creating Cpd A-B chimeras (see e.g., FIG. 11, FIG. 7, TABLE 6). […] On the basis of fluorescence resonance energy transfer (FRET) analysis of MFN2 labeled at the N and C termini, mitofusin agonists promoted an open MFN2 conformation favoring mitochondrial fusion, with a rank order paralleling that for HR2 binding and mitochondrial fusion (see e.g., FIG. 11G; compare to FIG. 11B and FIG. 11C), supporting allosteric activation. […]
Cells were excited with 408 nm (Hoechst), […] (MitoTracker Green and Calcein AM, GFP), or 637 nm (TMRE, MitoTracker Orange, Ethidium homodimer-1, and AF594-Dextran) laser diodes. For mitochondrial elongation studies mitochondrial aspect ratio (long axis/short axis) was calculated using automated edge detection and Image J software. […]

## CC1CCCCC1NC(=O)NCCSc1nnc(C2CC2)n1-c1ccccc1 (racemic) [B-A/I, 1-(2-((5-cyclopropyl-4-phenyl-4H-1,2,4-triazol-3-yl)thio)ethyl)-3-(2-methylcyclohexyl)urea]
Mfn2 null MEFs
  fusogenic activity (mitochondrial elongation), in words: potently stimulated mitochondrial fusion
[1]; ALS and HD fibroblasts
  mitochondrial structural defects: enhances mitochondrial structural defects
[1]; ALS and HD fibroblasts, MitoSOX
  mitochondrial ROS levels: reduces mitochondrial ROS levels
[1]; ALS and HD fibroblasts, TMRM
  mitochondrial membrane potential: improves mitochondrial membrane potential
[1]; control fibroblasts
  effect on fibroblasts from control subjects: no effect
[2]
  reversal of mitochondrial dysmorphology: as effective as the combination of Cpds A+B
